# How the values were obtained:
# [1] = Ross-Miles foam height assay of aldonamides (Examples 81-84); type: physicochemical; details: 0.1% aldonamide, 40° C. (if not soluble, about 5°-10° C. above Krafft point), 0 ppm hardness; for Foam Height Final: after 10 minutes
# Procedure: In the Ross-Miles method, 200 mL of a suffactant solution contained in a pipette of specified dimensions with a 2.9 -mm-i.d. orifice is allowed to fall 90 cm onto 50 mL of the same solution contained in a cylindrical vessel maintained at a given temperature by means of a water jacket. The height of the foam produced in the cylindrical vessel is read immediately after all the solution has run out of the pipette and then again after a given amount of time.
# Using this method, the foam production (initial foam height in mm) and foam stability (final foam height after 10 minutes in mm) were measured at 0.1% aldonamtde concentration, 40° C. and 0 ppm (parts per million) hardness.
# [2] = Krafft point determination; type: physicochemical; details: 0.1% in water
# Procedure: The temperature at and above which surfactants begin to form micelles instead of precipitates is referred to as the Krafft point (Tk) and at this temperature the solubility of a surfactant becomes equal to its CMC (numerical value at which micelles are formed).
# The Krafft point was measured by preparing 650 ml of a 0.1% or 1.0% dispersion of aldonamide in water by weight. If the surfactant was soluble at room temperature, the solution was slowly cooled to 0° C. […] (less than zero). If it precipitated out of solution, the temperature at which precipitation occurs was taken as the Krafft point.
# If the surfactant was insoluble at room temperature, the dispersion was slowly heated until the solution became homogeneous. It was then slowly cooled until precipitation occurred. The temperature at which the surfactant precipitates out of solution upon cooling was taken as the Krafft point.
Foam Height Initial [1],Foam Height Final [1] [mm],Krafft Point (0.1%) [2] [°C],Compound
0 mm,0,–,CCCCCCCNC(=O)[C@H](O)[C@@H](O)[C@H](O)[C@H](O)CO [C7 D-Gluconamide]
203 mm,101,–,CCCCCCCCCCCCCCOCCCNC(=O)[C@H](O)[C@@H](O)[C@H](O)[C@H](O)CO [C14 Oxypropyl D-Gluconamide]
153 mm,20,38,CCCCCCCCCCCCNC(=O)[C@H](O)[C@@H](O)[C@H](O[C@@H]1O[C@H](CO)[C@H](O)[C@H](O)[C@H]1O)[C@H](O)CO [C12 D-Lactobionamide]
–,–,46,CCCCCCCCCCCCCCNC(=O)[C@H](O)[C@@H](O)[C@H](O[C@H]1O[C@H](CO)[C@@H](O)[C@H](O)[C@H]1O)[C@H](O)CO [C14 D-Maltobionamide]
183 mm,107,–,"CCCCCCCCCCCCOC(=O)CNC(=O)[C@H](O)[C@@H](O)[C@H](O)[C@H](O)CO [N--D-Gluconyl C12 Glycinate, N-D-Gluconyl Dodecyl Glycinate]"
Insoluble,–,–,CCCCCCCCCCCCNC(=O)[C@H](O)[C@@H](O)[C@@H](O)[C@H](O)CO [C12 D-Galactonamide]
159 mm,152,< 0,"CCCCCCCCCCCCOC(=O)CCNC(=O)[C@H](O)[C@@H](O)[C@H](O[C@@H]1O[C@H](CO)[C@H](O)[C@H](O)[C@H]1O)[C@H](O)CO [D-Lactobionyl C12 β-Alaninate, N-D-Lactobionyl Dodecyl β-Alaninate]"
–,–,82,CCCCCCCCCCCCCCCCCCNC(=O)[C@H](O)[C@@H](O)[C@H](O[C@@H]1O[C@H](CO)[C@H](O)[C@H](O)[C@H]1O)[C@H](O)CO [C18 D-Lactobionamide]
158 mm,84,–,CCCCCCCC/C=C\CCCCCCCCNCCCNC(=O)[C@H](O)[C@@H](O)[C@H](O)[C@H](O)CO [Oleylaminopropyl D-Gluconamide]
166 mm,155,< 0,Dodecyl to Pentadecyloxypropyl D-Lactobionamide [C12 -C15 Oxypropyl D-Lactobionamide]
161 mm,153,< 0,"CCCCCCCCCCCCOC(=O)CNC(=O)[C@H](O)[C@@H](O)[C@H](O[C@@H]1O[C@H](CO)[C@H](O)[C@H](O)[C@H]1O)[C@H](O)CO [D-Lactobionyl C12 Glycinate, N-D-Lactobionyl Dodecyl Glycinate]"
Insoluble,–,–,CCCCCCCCCCCCNC(=O)[C@H](O)[C@H](O)[C@@H](O)[C@@H](O)CO [C12 L-Mannonamide]
197 mm,112,–,"CCCCCCCCCCCCOC(=O)C(C)NC(=O)[C@H](O)[C@@H](O)[C@H](O)[C@H](O)CO (mixture of isomers) [N--D-Gluconyl C12 DL-Alaninate, N-D-Gluconyl Dodecyl DL-Alaninate]"
185 mm,111,–,"CCCCCCCCCCCC(=O)OCCNC(=O)[C@H](O)[C@@H](O)[C@H](O)[C@H](O)CO [N--D-Gluconyl C12 Ester of Ethanolamine, N-D-gluconyl dodecyl ester of ethanolamine]"
141 mm,59,18,CCCCCCCCCCCCCCNC(=O)[C@H](O)[C@@H](O)[C@H](O[C@@H]1O[C@H](CO)[C@H](O)[C@H](O)[C@H]1O)[C@H](O)CO [C14 D-Lactobionamide]
184 mm,103,–,"CCCCCCCCCCCCNC(=O)[C@H](O)[C@H](O)[C@H](O)CO [C12 Ribonamide, Dodecyl D-Ribonamide]"
–,–,86,CCCCCCCCCCCCNC(=O)C(O)C(O)C(O)C(O)C(O)C(O)CO [C12 D-Glucooctonamide]
0 mm,0,–,CCCCC(CC)COCCCNC(=O)[C@H](O)[C@@H](O)[C@H](O)[C@H](O)CO (stereo partly drawn) [Ethylhexyloxypropyl D-Gluconamide]
163 mm,154,< 0,"CCCCCCCCCCCCCCOCCCNC(=O)[C@H](O)[C@@H](O)[C@H](O[C@@H]1O[C@H](CO)[C@H](O)[C@H](O)[C@H]1O)[C@H](O)CO [C14 Oxypropyl D-Lactobionamide, Tetradecyloxypropyl D-Lactobionamide]"

Foam Height Initial [1],Foam Height Final [1] [mm],Krafft Point (0.1%) [2] [°C],Compound
200 mm,110,–,dodecyl to pentadecyloxypropyl D-gluconamide [C12 -C15 Oxypropyl D-Gluconamide]
Insoluble,–,–,CCCCCCCCCCCCCCNC(=O)[C@H](O)[C@@H](O)[C@H](O)[C@H](O)CO [C14 D-Gluconamide]
–,–,70,CCCCCCCCCCCCCNC(=O)[C@H](O)[C@@H](O)[C@H](O[C@@H]1O[C@H](CO)[C@H](O)[C@H](O)[C@H]1O)[C@H](O)CO [C13 D-Lactobionamide]
245 mm,80,–,CCCCCCCCCCCCOCCCNC(=O)[C@H](O)[C@H](O)[C@@H](O)[C@H](O)[C@H](O)CO [C12 Oxypropyl D-Glucoheptonamide]
163 mm,155,< 0,"CCCCCCCCCCCCOCCCNC(=O)[C@H](O)[C@@H](O)[C@H](O[C@H]1O[C@H](CO)[C@@H](O)[C@H](O)[C@H]1O)[C@H](O)CO [C12 Oxypropyl D-Maltobionamide, Dodecyloxypropyl D-Maltobionamide]"
Insoluble,–,–,CCCCCCCCCCCCNC(=O)[C@@H](O)[C@H](O)[C@H](O)[C@@H](O)CO [C12 L-Galactonamide]
171 mm,168,< 0,Cocoaminopropyl D-Lactobionamide
0 mm,0,42,"CCCCCCCCCNC(=O)[C@H](O)[C@@H](O)[C@H](O[C@@H]1O[C@H](CO)[C@H](O)[C@H](O)[C@H]1O)[C@H](O)CO [C9 D-Lactobionamide, Nonyl D-Lactobionamide]"
Insoluble,–,–,CCCCCCCCCCCCCCCCNC(=O)[C@H](O)[C@@H](O)[C@H](O)[C@H](O)CO [C16 D-Gluconamide]
180 mm,176,–,dodecyl to pentadecyloxypropylaminopropyl D-gluconamide
Insoluble,–,–,CCCCCCCCCCCCCCCCCCNC(=O)[C@H](O)[C@@H](O)[C@H](O)[C@H](O)CO [C18 D-Gluconamide]
Insoluble,–,–,CCCCCCCCCCCCNC(=O)[C@H](O)[C@H](O)[C@@H](O)[C@@H](O)[C@H](O)CO [C12 D-Glycero-L-Mannoheptonamide]
0 mm,0,61,CCCCCCCCCCCNC(=O)[C@H](O)[C@@H](O)[C@H](O[C@@H]1O[C@H](CO)[C@H](O)[C@H](O)[C@H]1O)[C@H](O)CO [C11 D-Lactobionamide]
–,–,84,CCCCCCCCCCCCCCCNC(=O)[C@H](O)[C@@H](O)[C@H](O[C@@H]1O[C@H](CO)[C@H](O)[C@H](O)[C@H]1O)[C@H](O)CO [C15 D-Lactobionamide]
0 mm,0,–,CCCCCCCCNC(=O)[C@H](O)[C@@H](O)[C@H](O)[C@H](O)CO [C8 D-Gluconamide]
217 mm,200,–,Octyl/Decyloxypropyl D-Ribonamide [C8 /C10 Oxypropyl D-Ribonamide]
169 mm,165,< 0,CCCCCCCC/C=C\CCCCCCCCNCCCNC(=O)[C@H](O)[C@@H](O)[C@H](O[C@@H]1O[C@H](CO)[C@H](O)[C@H](O)[C@H]1O)[C@H](O)CO [Oleylaminopropyl D-Lactobionamide]
95 mm,95,64,CCCCCCCCCCCCCCCCNC(=O)[C@H](O)[C@@H](O)[C@H](O[C@@H]1O[C@H](CO)[C@H](O)[C@H](O)[C@H]1O)[C@H](O)CO [C16 D-Lactobionamide]

Compound,Foam Height Initial [1],Foam Height Final [1] [mm],Krafft Point (0.1%) [2] [°C]
Dodecyl to Pentadecyloxypropylaminopropyl D-Lactobionamide,173 mm,169,< 0
"CCCCCCCCCCCCOCCOCCOC(=O)CNC(=O)[C@H](O)[C@@H](O)[C@H](O)[C@H](O)CO [N--D-Gluconyl C12 Di(oxyethyl) Glycinate, N-D-Gluconyl Dodecyldi(oxyethyl) Glycinate]",203 mm,169,–

# Reference: patent US5641480A, “Hair care compositions comprising heteroatom containing alkyl aldonamide compounds” (Lever Brothers Company, Division of Conopco, Inc., priority 1994, dated 1997)
